Source: patent US12595289B2, “Therapeutic agent for breast cancer comprising BIG3-PHB2 interaction-inhibiting peptide derived from PHB2” (TOKUSHIMA UNIVERSITY, priority 2018, dated 2026)

B1: 11-90aa: PHB2 peptide of 11-90aa comprising the two regions of No. 1 and No. 5; 80 amino acids (peptide)
chain: RLPAGPRGMGTALKLLLGAGAVAYGVRESVFTVEGGHRAIFFNRIGGVQQDTILAEGLHFRIPWFQYPIIYDIRARPRKI
modifications: PHB2 derived peptide 11-90aa
notes: PHB2 peptide of 11-90aa comprising the two regions of No. 1 and No. 5; 80 amino acids

What was measured:
[1] = system: Human breast cancer cell line MCF-7; assay: Estrogen (E2)-dependent growth assay on MCF-7; format: cell-based; details: MCF-7, 10 μM each peptide, 10 nM estrogen, 24 hours
Procedure: (§1) Growth assay on MCF-7 was carried out by seeding cells into 48-well plates (2×10^4 cells/200 μL). First, on the next day after seeding, the medium was changed to phenol red-free DMEM/F12 (Thermo Fisher Scientific) supplemented with 10% FBS, 1% Antibiotic/Antimycotic solution, 0.1 mM NEAA, 1 mM sodium pyruvate, and 10 μg/mL insulin. 24 hours later, the cells were treated with 10 nM 17β-estradiol (estrogen, Sigma) alone or with 10 nM estrogen and a PHB2 sequence-derived peptide. Growth assay on MCF-10A was carried out by seeding cells into 48-well plates (2×10^4 cells/200 μL). 24 hours after seeding, PHB2 sequence-derived peptide was added. Growth assays were carried out using the Cell Counting Kit-8 (CCK-8) (Dojindo, Kumamoto, Japan). The data are shown by mean±standard deviation of three independent experiments.
PHB2 peptides 11-21aa and 76-88aa were cross-linked by three types of cross-linking methods (FIG. 10A: hexafluorobenzene cross-linking, decafluorobiphenyl cross-linking, and disulfide cross-linking) to prepare cross-linked PHB2 peptides (stapled PHB2 peptides) (FIG. 10B), and the suppressive effects of these peptides on estrogen-dependent growth were examined. In the experiment, breast cancer cells MCF-7 were seeded, 10 μM each PHB2 peptide and 10 nM estrogen were added after 48 hours, and the cell number was evaluated after another 24 hours by MTT assay.

[2] = system: Normal mammary gland epithelial cell line MCF-10A; assay: Growth assay on normal mammary gland epithelial cells MCF-10A; format: cell-based; details: MCF-10A, 10 μM each peptide, 24 hours
Procedure: as §1

[3] = system: PHB2 (Ser39) phosphorylation; assay: Ser39 phosphorylation of PHB2 in MCF-7 by Western blotting; format: cell-based, Human; details: MCF-7, 10 μM each peptide, 10 nM estrogen, 24 hours (FIG. 2C)
Procedure: (§2) For immunoblot analyses, after performing SDS-PAGE, the membranes blotted with proteins were blocked with 4% BlockAce solution (Dainippon Pharmaceutical, Osaka, Japan) for 3 hours and then incubated to react for 12 hours with antibodies against BIG3 (1:1,000), PHB2 (1:1,000) (Abcam, Cambridge, UK) and phosphorylated PHB2 (Ser39, Scrum, Tokyo, Japan). After allowing interaction with HRP-labeled secondary antibodies (anti-rat IgG-HRP for BIG3, 1:5,000; and anti-rabbit IgG-HRP for PHB2 and phosphorylated PHB2, 1:1,000) (Santa Cruz Biotechnology, Dallas, TX, USA) for 1 hour, the blots were developed with the Enhanced Chemiluminescence (ECL) system (GE Healthcare, Buckinghamshire, UK) and scanned using the Image Reader LAS-3000 mini (Fujifilm, Tokyo, Japan).

[4] = system: Human breast cancer cell line MDA-MB-231; assay: Combination assay on MDA-MB-231; format: cell-based; details: MDA-MB-231, each peptide at respective IC50, 96 hours
Procedure: MDA-MB-231 cells were seeded into 48-well plates at a cell density of 1×10^4 cells/200 μL in well. 48 hours later, the medium in each well was exchanged to media supplemented with PHB2 peptide 11-22aa (added concentration: IC50 value), PHB2 peptide 76-90aa (added concentration: IC50 value) and a mixed solution of both peptides (added concentration: respective IC50 value), respectively, or to a medium supplemented with phosphate buffered saline (PBS) as a negative control. After culture for another 96 hours, the cell growth level was measured using the Cell Counting Kit-8 (Dojindo, Kumamoto, Japan). The data obtained was used to calculate relative values based on the growth level when PBS was added, and the graph was produced.

[5] = system: Human breast cancer cell line MDA-MB-231; details: 96 h
Procedure: MDA-MB-231 cells were seeded into 48-well plates at a cell density of 1×10^4 cells/200 μL in well. […] Data were obtained from three independent experiments, a graph (mean±standard deviation) was produced using a graphing and data analyzing software SigmaPlot (Systat Software, San Jose, CA, USA), and the 50% inhibition concentration (IC50) of the peptide against cell growth was calculated.

[6] = system: Human breast cancer cell line MCF-7; assay: Estrogen (E2)-dependent growth assay on MCF-7; format: cell-based; details: MCF-7, 10 μM peptide alone, 10 nM estrogen, after 96 hours
[7] = molecular target: T1, interaction between BIG3 and PHB2 (Homo sapiens, UniProt Q5TH69); assay: Inhibition of BIG3-PHB2 binding in MCF-7, immunoprecipitation with anti-BIG3 antibody and Western blotting; format: cell-based; details: MCF-7 (FIG. 3B)
T1 construct: endogenous in cells; host or cells: MCF-7 (human breast cancer cell line)
T1 sequence (Q5TH69 whole entry): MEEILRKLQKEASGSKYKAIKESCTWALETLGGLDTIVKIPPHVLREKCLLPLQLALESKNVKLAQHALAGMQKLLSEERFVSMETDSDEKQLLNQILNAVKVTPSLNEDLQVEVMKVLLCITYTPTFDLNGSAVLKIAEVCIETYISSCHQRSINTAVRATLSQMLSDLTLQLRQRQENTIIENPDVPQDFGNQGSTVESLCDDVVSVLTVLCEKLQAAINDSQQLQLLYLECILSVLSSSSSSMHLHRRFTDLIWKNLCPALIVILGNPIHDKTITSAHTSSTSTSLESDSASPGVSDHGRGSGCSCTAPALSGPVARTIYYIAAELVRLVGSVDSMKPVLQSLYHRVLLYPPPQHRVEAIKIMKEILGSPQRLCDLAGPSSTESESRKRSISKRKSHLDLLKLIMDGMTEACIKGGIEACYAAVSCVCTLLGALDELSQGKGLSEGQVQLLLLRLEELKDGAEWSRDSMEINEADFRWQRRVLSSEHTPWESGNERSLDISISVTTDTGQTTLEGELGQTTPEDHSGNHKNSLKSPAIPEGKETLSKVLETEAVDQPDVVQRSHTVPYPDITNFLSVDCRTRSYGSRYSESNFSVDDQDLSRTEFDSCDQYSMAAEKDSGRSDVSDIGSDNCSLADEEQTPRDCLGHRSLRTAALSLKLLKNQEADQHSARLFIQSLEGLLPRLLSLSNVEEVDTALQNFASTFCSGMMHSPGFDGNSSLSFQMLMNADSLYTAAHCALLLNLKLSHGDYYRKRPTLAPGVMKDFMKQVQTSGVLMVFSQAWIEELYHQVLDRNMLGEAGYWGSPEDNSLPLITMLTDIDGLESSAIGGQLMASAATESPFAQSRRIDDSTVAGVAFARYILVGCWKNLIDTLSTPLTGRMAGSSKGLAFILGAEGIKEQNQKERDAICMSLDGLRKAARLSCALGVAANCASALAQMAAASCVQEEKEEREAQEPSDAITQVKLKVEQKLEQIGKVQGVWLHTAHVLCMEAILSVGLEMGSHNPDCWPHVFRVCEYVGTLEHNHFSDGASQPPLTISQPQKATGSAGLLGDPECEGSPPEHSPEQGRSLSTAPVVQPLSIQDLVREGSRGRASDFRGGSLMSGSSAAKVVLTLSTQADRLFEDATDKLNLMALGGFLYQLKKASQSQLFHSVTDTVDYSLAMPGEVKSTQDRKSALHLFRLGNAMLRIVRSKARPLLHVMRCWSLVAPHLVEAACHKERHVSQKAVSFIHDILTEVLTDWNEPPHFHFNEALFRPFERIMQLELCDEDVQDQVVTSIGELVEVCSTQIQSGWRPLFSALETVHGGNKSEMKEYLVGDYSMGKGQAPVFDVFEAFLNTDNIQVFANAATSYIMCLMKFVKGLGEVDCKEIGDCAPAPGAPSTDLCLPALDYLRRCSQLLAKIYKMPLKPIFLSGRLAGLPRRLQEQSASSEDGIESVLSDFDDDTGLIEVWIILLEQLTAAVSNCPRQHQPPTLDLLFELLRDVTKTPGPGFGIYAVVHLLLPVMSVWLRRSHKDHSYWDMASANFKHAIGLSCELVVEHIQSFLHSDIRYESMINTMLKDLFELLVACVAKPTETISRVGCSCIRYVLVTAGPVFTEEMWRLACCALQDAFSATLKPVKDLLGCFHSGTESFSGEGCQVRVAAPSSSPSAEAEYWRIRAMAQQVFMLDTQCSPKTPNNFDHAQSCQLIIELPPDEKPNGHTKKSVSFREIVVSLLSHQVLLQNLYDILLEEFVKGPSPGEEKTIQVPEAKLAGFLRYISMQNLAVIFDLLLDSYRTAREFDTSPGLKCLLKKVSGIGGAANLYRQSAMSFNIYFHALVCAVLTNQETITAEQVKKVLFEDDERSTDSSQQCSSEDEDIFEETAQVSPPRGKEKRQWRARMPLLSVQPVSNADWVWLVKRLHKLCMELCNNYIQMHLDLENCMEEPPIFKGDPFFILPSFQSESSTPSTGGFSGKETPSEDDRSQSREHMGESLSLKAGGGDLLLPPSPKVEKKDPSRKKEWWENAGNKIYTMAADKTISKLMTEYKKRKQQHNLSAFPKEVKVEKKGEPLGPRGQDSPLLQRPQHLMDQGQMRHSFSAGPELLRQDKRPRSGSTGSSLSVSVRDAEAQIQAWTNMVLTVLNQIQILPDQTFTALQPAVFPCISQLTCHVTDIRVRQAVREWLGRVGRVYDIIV
Procedure: as §2
For immunoprecipitation, MCF-7 was seeded into 10 cm dishes (2×10^6 cells/10 mL), and like cell growth assay, MCF-7 was treated with 10 nM estrogen alone or with 10 nM estrogen and PHB2 sequence-derived peptide. For immunoprecipitation analysis, cell lysates lysed in a cell lysis buffer (50 mM Tris-HCl; pH 8.0, 150 mM NaCl, 0.1% NP-40, and 0.5% CHAPS; 0.1% protease inhibitor cocktail III) were pre-cleared with a rat IgG antibody and rec-Protein G Sepharose 4B (Thermo Fisher Scientific) at 4° C. for 3 hours. Then, the supernatants were incubated for reaction with 5 μg of an antibody against BIG3 at 4° C. for 12 hours. […]

| IC50 [5] | Molecule | suppression ratio of E2-dependent growth ([1]; listed as 76-90aa) | suppression ratio of E2-dependent growth ([1]; listed as PHB2 (76-90aa)) | inhibition ratio of MCF-10A growth [2] | band intensity of Ser39 phosphorylation of PHB2 compared to ERAP treatment [3] | suppression of growth compared to PBS [4] | suppression ratio of E2-dependent growth [6] | suppression ratio of E2-dependent growth ([1]; listed as 11-22aa) | suppression ratio of E2-dependent growth ([1]; listed as PHB2 (11-22aa)) | suppression ratio of E2-dependent growth ([1]; listed as SEQ ID NO: 1) | inhibition of the binding between BIG3 and PHB2 [7] |
| --- | --- | --- | --- | --- | --- | --- | --- | --- | --- | --- | --- |
| 273 nM | CC[C@H](C)[C@H](NC(=O)[C@H](CC(=O)O)NC(=O)[C@H](Cc1ccc(O)cc1)NC(=O)[C@@H](NC(=O)[C@@H](NC(=O)[C@@H]1CCCN1C(=O)[C@H](Cc1ccc(O)cc1)NC(=O)[C@@H](N)CCC(N)=O)[C@@H](C)CC)[C@@H](C)CC)C(=O)N[C@@H](CCCNC(=N)N)C(=O)N[C@@H](C)C(=O)N[C@@H](CCCNC(=N)N)C(=O)N1CCC[C@H]1C(=O)N[C@@H](CCCNC(=N)N)C(=O)N[C@@H](CCCCN)C(=O)N[C@H](C(=O)N[C@@H](CCCNC(=N)N)C(=O)N[C@@H](CCCNC(=N)N)C(=O)N[C@@H](CCCNC(=N)N)C(=O)N[C@@H](CCCNC(=N)N)C(=O)N[C@@H](CCCNC(=N)N)C(=O)N[C@@H](CCCNC(=N)N)C(=O)N[C@@H](CCCNC(=N)N)C(=O)N[C@@H](CCCNC(=N)N)C(=O)O)[C@@H](C)CC [No. 5] | 61% | 51% | no effect on growth | 20% | about 50% | 24% |  |  |  |  |
| 462 nM | CSCC[C@H](NC(=O)CNC(=O)[C@H](CCCNC(=N)N)NC(=O)[C@@H]1CCCN1C(=O)CNC(=O)[C@H](C)NC(=O)[C@@H]1CCCN1C(=O)[C@H](CC(C)C)NC(=O)[C@@H](N)CCCNC(=N)N)C(=O)NCC(=O)N[C@H](C(=O)N[C@@H](C)C(=O)N[C@@H](CCCNC(=N)N)C(=O)N[C@@H](CCCNC(=N)N)C(=O)N[C@@H](CCCNC(=N)N)C(=O)N[C@@H](CCCNC(=N)N)C(=O)N[C@@H](CCCNC(=N)N)C(=O)N[C@@H](CCCNC(=N)N)C(=O)N[C@@H](CCCNC(=N)N)C(=O)N[C@@H](CCCNC(=N)N)C(=O)O)[C@@H](C)O [No. 1] |  |  | no effect on growth | 40% | about 50% | 31% | 40% | 63% | about 65% |  |
|  | B1 |  |  |  |  |  |  |  |  |  | did not provide a sufficient effect of inhibiting the binding |
